The IC50 is the concentration at which inhibition is half-maximal. Lower therefore signals higher potency.

Structures are written as SMILES. Some results are limits rather than exact numbers.

One assay concerns BGC-823 (human). Kind of assay: Cytotoxicity against human BGC823 cells after 48 hrs by MTT assay. Particulars: BGC-823, 48 h.
In a further assay the test system is HL-60 (human). Kind of assay: Cytotoxicity against human HL60 cells after 48 hrs by MTT assay. Particulars: HL-60, 48 h.

In the case of `CC(C)=CCC[C@](C)(O)[C@H]1C[C@H](O)[C@]2(C)[C@H]1C(=O)C[C@@H]1[C@@]3(C)CC[C@H](O)C(C)(C)[C@@H]3[C@@H](O)C[C@]12C`, the IC50 with BGC-823 (human) is over 100 µM; in the assay with HL-60 (human) it was 15 µM.
On the same counts, the results for `C/C(=C\CC[C@](C)(O)[C@H]1CC[C@]2(C)[C@H]1[C@H](O)C[C@@H]1[C@@]3(C)CC[C@H](O)C(C)(C)[C@@H]3[C@@H](O)C[C@]12C)CO` are over 100 µM and 12.3 µM.
Consider `C/C(=C/CC[C@](C)(O)[C@H]1CC[C@]2(C)[C@H]1C(=O)C[C@@H]1[C@@]3(C)CC[C@H](O)C(C)(C)[C@@H]3[C@@H](O)C[C@]12C)CO`, for which the IC50 was over 100 µM in the assay on BGC-823 (human) and 10.8 µM in the assay on HL-60 (human).
Regarding `C/C(=C\CC[C@](C)(O)[C@H]1CC[C@]2(C)[C@H]1C(=O)C[C@@H]1[C@@]3(C)CC[C@H](O)C(C)(C)[C@@H]3[C@@H](O)C[C@]12C)CO`, the IC50 was over 100 µM in the assay on BGC-823 (human) and 16.3 µM in the assay on HL-60 (human).
Molecule `CC(C)=CCC[C@](C)(O)[C@H]1CC[C@]2(C)[C@@H]1[C@H](O)C[C@@H]1[C@@]3(C)CC[C@H](O)C(C)(C)[C@@H]3[C@@H](O)C[C@]12C` returned an IC50 with HL-60 (human) of 16 µM.

Source of the values: ChEMBL document CHEMBL1158752, “Microbial transformation of 20(S)-protopanaxatriol by Mucor spinosus” (J Nat Prod, 2005).
